The results in this text go back to patent publication US7476729B2, “Dbait and uses thereof” (Institut Curie, priority 2003, dated 2009).

The test system of one data set is Hep2 xenografted tumors. The data set can be described thus: Radiosensitization of Hep2 (HNSCC) tumors xenografted on nude mice. Type of data set: in vivo. More on the design: Mean TGD: unit not given here. The procedure:
In vivo activity of Dbait molecules in association with radiotherapy was assessed by using nude mice xenografted with human tumors by subcutaneous injection of radio-resistant cell lines (Hep2 derived from head and neck squmous cell carcinoma, HNSCC) or tumor fragments (previously obtained by subcutaneous injection of the U87 cell lines derived of glioblastoma).
Investigations were mainly carried out on the mice xenografted with radio-resistant human HNSCC tumors in order to establish proof of concept in vivo. Irradiation was performed with γ-rays from a ^137Cs source with appropriate protection of mice in order to perform localized irradiation of tumors. Typical assay condition consists of intratumoral injection of an appropriate preparation of 1 nmole Dbait molecules with transfecting agents (cationic dendrimer (Superefct, Qiagene), dioctadecylamidoglycyl-spermine (DOGS, Polyplus transfection), polyethyleneimine (PEI, Polyplus Transfection) according to manufacturer's instruction, 5 hours prior irradiation. A total dose of 30 Gy was delivered in 5 weeks: i) 3×2 Gy/week (about one every two days); ii) 5 Gy/week; iii) 15 Gy/2 weeks.
The size of tumor was measured 2-3 times a week. Treatment by irradiation and intratumoral injection of MEM medium (the Dbait dilution buffer), was used as a control of irradiation treatment without Dbait. The volume of tumor was calculated ([…], where a=length, b=width). The ratio of volume measured at t time over the initial volume (Vt/Vi) was used as indicator of tumor progression. The mice were followed up to 100 days. At least 4 independent series of six animals were tested.
MEM or Dbait32H (SEQ ID NO: 1) was delivered by intratumoral injection 5 hours prior irradiation. The fractionated irradiation dose (2 Gy) was given one of every two days, three times a week. The treatment lasted 5 weeks totaling 30 Gy irradiation. The dots represent the time course of tumor volume of each mouse. The solid lines are the best polynomial fitting.
Tumor growth was monitored during treatment and after in four groups of 10 animals with different treatments (untreated, treated with Dbait32H (SEQ ID NO: 1) alone, treated by irradiation alone, and the combined Dbait32H (SEQ ID NO: 1) and irradiation). Individual tumor growth is indicated for each animal. The treatment protocol was the same as described in FIG. 4.1. The experiment started when the volume of Hep2 tumors reached 150-200 mm^3. For each treatment session, 20 μg Dbait32H (SEQ ID NO: 1) formulated with polyethyleneimine (PEI, Polyplus Transfection, Strasbourg, France) according to the manufacturer's instruction was injected into tumor 5 hours prior 2 Gy irradiation.
For ethical reason, the animals were sacrificed when their tumors reached 2 cm^3. This end-point was used as death in survival analysis. The treatment protocol was described in FIG. 4.3. The five groups were included: untreated, mock-tranfected and irradiated, treated by combined irradiation and increasing amount of Dbait32H (SEQ ID NO: 1) (20, 60 and 120 μg/session). […] Pictures of tumors representative of the groups (untreated, treated with 20 and 60 μg Dbait32H/session associated with 2 Gy irradiation) which were taken 15 days after beginning of treatment, at the end of treatment (35 days) and 13 days after the end of treatment (35+13 days). They provided clear visual comparison of the benefit of the combined Dbait32H (SEQ ID NO: 1) and irradiation treatment.
Descriptive analyses of the tumor response were performed for each treatment and each tumor type. Day 1 was the day of the first treatment session. All the animals were followed for at least 150 days or until their ethical sacrifice. Median lifetime was estimated according to the Kaplan-Meier method. TGD was calculated by subtracting the mean tumor volume quadrupling time of the control group from tumor volume quadrupling times of individual mice in each treated group. […]

In another data set the test system is GMA32 cells. The data set can be described thus: FACS analysis of sub-G1 cells (cell death) in GMA32 cells. The class given is cell-based, Chinese hamster. The settings on record: GMA32, 4.5 μg Dbait with lipofectamine, no irradiation or mitotic inhibitor. The protocol: The GMA32 Chinese hamster fibroblast cells permissive of DNA breaks were maintained in MEM medium (Gibco) supplemented with 1 mM sodium pyruvate, 2 mM glutamine, 1×MEM non essential amino acids, 1× penicillin/streptomycin and 10% horse serum. Typically, 2×10^5 to 4×10^5 cells were seeded in medium without antibiotics, in 5 cm diameter Petri dishes 24 hours before the transfection of different Dbait molecules (4.5 μg) with lipofectamine 2000 (LifeTechnologies) as transfection agent (in a 1:3 ratio), according to the manufacturer's instructions. At the end of the transfection the cells were either irradiated (4 Gy) or treated with mitotic inhibitors: nocodazole (200 nM), navelbine (100 nM) or taxol (200 nM).
About 16 hour later the drug was removed and the cells were allowed to recover. Cell irradiation was performed with γ-rays from a ^137Cs source. After a 24 hours recovery, the cells were collected and used either for FACS, western blot analyses or to determine the clonogenicity (survival) and the effect of each treatment.
The M1 phase represents the percentage of cells in sub-G1 stage indicative of cell death.
The experiments were performed with a FACS calibur flow cytometer (Becton Dickinson). Cells were collected, suspended in 1 ml of cold GM buffer (6.5 mM glucose, 137 mM NaCl, 5.4 mM KCl, 2 mM Na2HPO4, 1 mM KHPO4, 0.5 mM EDTA), and stored at 4° C. for at least 2 hours after addition of 3 ml of cold 100% ethanol.
At that stage, cells were eventually washed with 1×PBS, then stained for 30 minutes at room temperature in PI solution (50 μg/ml propidium iodide, 25 μg/ml RNase A in 1×PBS buffer). 10,000 events were analyzed with Cellquest software, and cell aggregates were gated out. The percentage of cells with a sub-G1 content of DNA was scored.
(A flow cytometer gives signals particle by particle.)

Where [1] appears, read: Hep2, 15 × 2 Gy, 15 × 20 μg (1 nmole).
The mark [2] stands for this setting: Hep2, 15 × 2 Gy, 15 × 60 μg (3 nmole).
Setting [3] is: Hep2, 15 × 2 Gy, 15 × 120 μg (6 nmole).
The mark [4] stands for this setting: Hep2, no irradiation, 15 × 20 μg (1 nmole).
Setting [5] is: Hep2, 15 × 2 Gy, 15 × 120 μg (12 nmole).
Where [6] appears, read: Hep2, no irradiation, 15 × 120 μg (12 nmole).

As to “Dbait32H: hairpin double strand DNA with a stem of 32-bp, hexaethyleneglycol linker, phosphorothioate at the free blunt end (DNA ACGCACGGGTGTTGGGTCGTTTGTTCGGATCT; DNA, backbone not given here; hairpin, hexaethyleneglycol loop, 3-bp phosphorothioate at free blunt end)”, the “radiosensitization, tumor growth (Vt/Vi)” value with Hep2 xenografted tumors (1 nmole (20 μg) intratumoral 5 hours prior irradiation, 3×2 Gy/week, 5 weeks, versus MEM+3×2 Gy) was “clearly showed radiosensitization”. Also, the tumor growth result in the data set with Hep2 xenografted tumors (20 μg with PEI intratumoral 5 hours prior 2 Gy, 15 sessions, versus irradiation or Dbait32H alone) was “greatly reduced”. For the same substance, the “survival (Kaplan-Meier), dose dependence” value with Hep2 xenografted tumors (20, 60 and 120 μg/session with 2 Gy irradiation) is given as “clear dose-dependent effect”. Besides, the “Mean % TGD” value is recorded as 561% in the data set with Hep2 xenografted tumors (setting [1]), 880% in the data set on Hep2 xenografted tumors (setting [2]), 952% with Hep2 xenografted tumors (setting [3]) and 168% with Hep2 xenografted tumors (setting [4]). For the same substance, the “Mean TGD” value is listed as 49 with Hep2 xenografted tumors (setting [1]), over 83 in the data set with Hep2 xenografted tumors (setting [2]), over 91 with Hep2 xenografted tumors (setting [3]) and 7 with Hep2 xenografted tumors (setting [4]). In addition, the “Median survival time” value with Hep2 xenografted tumors (setting [1]) was 93 days; in the data set on Hep2 xenografted tumors (setting [2]) it was 129 days; in the data set with Hep2 xenografted tumors (setting [3]), 150 days; in the data set on Hep2 xenografted tumors (setting [4]) it was 55 days. In addition, the Relative risk with Hep2 xenografted tumors (Hep2, 15 × 2 Gy, 15 × 20 μg (1 nmole), reference C* (Mock + irradiation)) is 0.42; in the data set with Hep2 xenografted tumors (Hep2, 15 × 2 Gy, 15 × 60 μg (3 nmole), reference C* (Mock + irradiation)), 0.28; in the data set on Hep2 xenografted tumors (Hep2, 15 × 2 Gy, 15 × 120 μg (6 nmole), reference C* (Mock + irradiation)), 0.18; in the data set with Hep2 xenografted tumors (Hep2, no irradiation, 15 × 20 μg (1 nmole), reference C (untreated)) it was 0.62. In addition, the “Number of cured mice” value in the data set on Hep2 xenografted tumors (setting [2]) came to 3; in the data set on Hep2 xenografted tumors (setting [3]) it was 4. Moreover, the “NMR imaging: necrotic area” value with Hep2 xenografted tumors (mid-course (7 sessions), 20 μg/session and 2 Gy/session versus irradiation alone) is given as “necrotic area was more important”. Also, the “histology: necrosis and apoptosis” value in the data set on Hep2 xenografted tumors (mid-course treatment (7 sessions), 20 days, combined with irradiation versus irradiation alone) is “enhancement of necrosis and apoptosis was observed”. Also, the “radiosensitization depending on dwell time between intratumoral injection and ionizing radiation” value in the data set on Hep2 xenografted tumors (xenografted tumors on nude mice) worked out at 5 hours>>1 hour. The “cell death (cells in sub-G1 stage)” value with GMA32 cells is listed as “Significant cell death”.

With “Dbait32ss: 32-nt single strand DNA (SEQ ID NO: 1) (DNA ACGCACGGGTGTTGGGTCGTTTGTTCGGATCT; DNA, backbone not given here)”, in the data set on Hep2 xenografted tumors (setting [5]), the “Mean % TGD” value is listed as 374%, the “Mean TGD” value is recorded as 29 and the “Median survival time” value was determined as 80 days. The Relative risk with Hep2 xenografted tumors (Hep2, 15 × 2 Gy, 15 × 120 μg (12 nmole), reference C* (Mock + irradiation)) amounted to 0.57. In the data set with Hep2 xenografted tumors (setting [6]), the “Mean % TGD” value worked out at 156%, the “Mean TGD” value stood at 6 and the “Median survival time” value was determined as 46 days. Moreover, the Relative risk in the data set on Hep2 xenografted tumors (Hep2, no irradiation, 15 × 120 μg (12 nmole), reference C (untreated)) is 0.71. Further, in the data set on Hep2 xenografted tumors (high dose (15 × 120 μg)), the “in vivo activity (survival of xenografted animals)” value was “inactive”. The “cell death (cells in sub-G1 stage)” value in the data set with GMA32 cells was “moderate”.

In the case of “Dbait16H: hairpin double strand DNA with a stem of 16-bp (DNA ACGCACGGGTGTTGGG; DNA, backbone not given here; hairpin DNA with hexaethyleneglycol loop, 3-bp phosphorothioate at free blunt end)”, in the data set with GMA32 cells, the “cell death (cells in sub-G1 stage)” value is recorded as “intermediate”.

As for “Dbait8H: hairpin double strand DNA with a stem of 8-bp (DNA ACGCACGG; DNA, backbone not given here; hairpin, hexaethyleneglycol loop, 3-bp phosphorothioate at free blunt end)”, in the data set with GMA32 cells, the “cell death (cells in sub-G1 stage)” value was “failed to trigger cell death”.
